# Measured values: ChEMBL document CHEMBL3400009, “A FRET-based assay for screening SIRT5 specific modulators” (Bioorg Med Chem Lett, 2015)
# The source made the active and inactive calls. No cut-off for these calls is given here.
# Columns and labels:
# [1] = molecular target: T1, NAD-dependent protein deacylase sirtuin-5, mitochondrial (Homo sapiens, UniProt Q9NXA8); assay: Inhibition of human SIRT5 assessed as reduction in desuccinylase activity using KQTAR(SuK)STGGKA substrate
# Target sequence in this assay (Q9NXA8 whole entry): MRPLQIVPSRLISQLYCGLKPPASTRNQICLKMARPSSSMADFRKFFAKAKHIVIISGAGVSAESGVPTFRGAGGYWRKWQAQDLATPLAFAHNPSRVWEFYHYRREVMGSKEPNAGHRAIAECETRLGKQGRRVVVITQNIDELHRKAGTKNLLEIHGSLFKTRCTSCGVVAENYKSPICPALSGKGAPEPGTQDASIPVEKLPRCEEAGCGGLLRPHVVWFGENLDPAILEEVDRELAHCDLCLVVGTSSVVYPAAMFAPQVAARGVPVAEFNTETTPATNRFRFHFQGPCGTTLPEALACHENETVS
# [2] = molecular target: T1, NAD-dependent protein deacylase sirtuin-5, mitochondrial; assay: Inhibition of SIRT5 (unknown origin) at 30 uM using (DABCYL)ISGASE(SuK)DIVHSE(EDANS)G peptide substrate incubated for 1 hrs followed by 1 hr incubation with trypsin and nicotinamide by FRET-based assay
# Target sequence in this assay (Q9NXA8 37-310 limits assumed): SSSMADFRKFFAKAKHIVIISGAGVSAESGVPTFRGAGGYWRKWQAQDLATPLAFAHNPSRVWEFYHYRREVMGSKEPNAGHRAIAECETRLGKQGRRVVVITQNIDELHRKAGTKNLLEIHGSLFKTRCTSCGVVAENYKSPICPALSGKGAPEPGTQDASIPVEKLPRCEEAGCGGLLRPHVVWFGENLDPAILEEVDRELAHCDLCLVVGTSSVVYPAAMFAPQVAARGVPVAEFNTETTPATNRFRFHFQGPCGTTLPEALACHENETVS
SMILES,IC50 [1] [µM],inhibition [2]
N#C/C(=C\c1ccc(-c2cc(Cl)ccc2Cl)o1)C(=O)Nc1cccc2ncccc12,> 100,inactive
Cc1ccc(C(=O)Nc2ccc(S(=O)(=O)O)c3cc(S(=O)(=O)O)cc(S(=O)(=O)O)c23)cc1NC(=O)c1cccc(NC(=O)Nc2cccc(C(=O)Nc3cc(C(=O)Nc4ccc(S(=O)(=O)O)c5cc(S(=O)(=O)O)cc(S(=O)(=O)O)c45)ccc3C)c2)c1,–,Active
NC(=O)c1cccnc1,–,inactive
CC(NC(=O)c1ccccc1/N=C/c1c(O)ccc2ccccc12)c1ccccc1 (stereo not drawn) [SIRTINOL],> 100,inactive
O=C1CCc2c(ccc3ccccc23)O1 [SPLITOMICIN],> 100,inactive
